Assay type in all cases: cell-based
One test concerns NF-κB p65. The experiment in a line: Immunofluorescence of p65 nuclear accumulation in LPS-stimulated RAW264.7 cells. To be noted: RAW264.7, LPS 5 μg/mL, 100 nM, 4 hours. As for the experimental part: We next examined whether compound 50 can block the accumulation of c-Rel in the nucleus of cells induced by LPS (FIG. 2). RAW264.7 cells cultured in DMEM with 10% BCS were split and seeded into 4-well chambered slides at 80,000 cells/well density. The cells were then treated with DMSO, Compound 50 (100 nM), LPS (Sigma, 5 μg/mL), LPS (5 μg/mL)+Compound 50 (100 nM) for 4 hours and fixed with 3% paraformaldehyde solution (1×PBS) after 1× quick rinse with 1×PBS. Fixed cells were permeablized with 0.2% TX100 and immunostained with anti-cRel antibody (SC70, Santa Cruz, 1:200 dilution) or anti-NF-κB p65 antibody (SC109, Santa Cruz, 1:100 dilution), and subsequently stained with Alexa Fluor 488 Goat-anti-Rabbit secondary antibody and DAPI (Molecular Probes, 1.1 μM). Images were obtained with CoolSNAP monochrome CCD camera on a Nikon inverted microscope TE300 using identical imaging parameters and were processed identically with Photoshop CS software. As observed previously, c-Rel localized to the cytoplasm in DMSO-treated cells and to the nucleus in LPS-treated cells. […] We also examined whether Compound 50 blocks the nuclear accumulation of another NF-κB/Rel family member, p65, in LPS-stimulated RAW cells (FIG. 3). As observed for c-Rel, p65 was localized to the cytoplasm in DMSO and Compound 50-treated cells and to the nucleus in LPS-stimulated cells. […]

Another test concerns IκBα. The experiment in a line: Inducible degradation of IκBα (Western blot and FACS). To be noted: IFN-γ/LPS or IFN-γ/SAC, 500 nM, 30 min and 2 hrs. The protocol: (§1) IκB degradation is one of the steps in the signaling pathway of NF-κB dependent genes. The activity of Compound 50 in inducible degradation of IκBα and IκBβ was investigated in THP-1 cells using Western blot and FACS analysis. […] Similar results were observed from the Compound 50 pre-treatment samples in which Compound 50 was added 30 min before stimulation.

The test system of a further test is IκBβ. The experiment in a line: Inducible degradation of IκBβ (Western blot and FACS). As to conditions: IFN-γ/LPS or IFN-γ/SAC, 500 nM, 30 min and 2 hrs. The protocol:
as §1
In general terms: In western blotting, separated proteins are transferred to a membrane and probed.

Test [1] has as its target T1, c-Rel (Homo sapiens, UniProt Q04864).
T1 construct: a western blot assay of THP1 nuclear c-Rel, p50 and p65 proteins was carried out; endogenous in cells; host or cells: THP-1; Jurkat
T1 sequence (Q04864 1-619): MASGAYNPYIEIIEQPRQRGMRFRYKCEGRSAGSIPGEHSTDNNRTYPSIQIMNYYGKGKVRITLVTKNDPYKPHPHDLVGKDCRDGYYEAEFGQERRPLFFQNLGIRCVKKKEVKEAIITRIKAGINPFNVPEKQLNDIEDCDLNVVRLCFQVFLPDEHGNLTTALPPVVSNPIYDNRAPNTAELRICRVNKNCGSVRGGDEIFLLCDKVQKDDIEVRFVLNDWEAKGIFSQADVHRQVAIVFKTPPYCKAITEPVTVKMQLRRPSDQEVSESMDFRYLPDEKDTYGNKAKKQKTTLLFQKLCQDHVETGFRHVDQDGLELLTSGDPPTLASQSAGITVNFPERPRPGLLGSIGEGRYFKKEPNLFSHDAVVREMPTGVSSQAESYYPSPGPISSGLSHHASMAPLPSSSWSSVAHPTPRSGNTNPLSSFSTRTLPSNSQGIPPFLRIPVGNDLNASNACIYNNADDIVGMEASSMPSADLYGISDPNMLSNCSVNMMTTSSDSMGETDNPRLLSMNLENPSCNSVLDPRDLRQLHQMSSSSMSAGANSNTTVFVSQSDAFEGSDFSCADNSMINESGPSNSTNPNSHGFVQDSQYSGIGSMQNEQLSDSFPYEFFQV
The experiment in a line: Nuclear c-Rel in PMA+ionomycin stimulated Jurkat T cells (immunoblot). To be noted: 100 nM. From the text:
We therefore examined the accumulation of nuclear c-Rel in these cells by immunoblot analysis.

The test system of another test is p50. Briefly: Nuclear p50 in PMA+ionomycin stimulated Jurkat T cells (immunoblot). As to conditions: 100 nM.
The subject of the next test is p65. Briefly: Nuclear p65 in PMA+ionomycin stimulated Jurkat T cells (immunoblot). To be noted: 100 nM.
For test [2], the target named is T2, c-Rel (Mus musculus, UniProt P15307).
T2 construct: nuclear extracts from RAW cells stimulated with LPS/IFNγ; endogenous in cells; host or cells: RAW264.7
The experiment in a line: BD TransFactor assay of c-Rel DNA-binding activity in nuclear extracts of RAW 264.7 cells. As to conditions: LPS/IFNγ, 1000 nM, 30 min pre-treatment, 3 hrs. As for the experimental part:
In this study, we examined the effect of Compound 50 on the DNA-binding activity of nuclear c-Rel. The BD transfactor assay (a non-radioactive version of a super-shift assay) was used to measure the DNA-binding activity of c-Rel. In this assay, nuclear extracts are added to biotinylated double-stranded oligonucleotides containing the NF-κB binding site bound to a streptavidin 96-well plate. Detection of the transcription factor-DNA complex is performed with a specific primary antibody for c-Rel. The 96-well format allows for simultaneous measurement of multiple conditions and proteins using HRP-conjugated secondary antibodies whose enzymatic product can be measured using a luminometer. The level of c-Rel DNA-binding activity increased 40-fold (relative to DMSO control) in nuclear extracts from RAW cells stimulated with LPS/IFNγ.
Methods: 20×10^6 Raw 264.7 cells were treated with either DMSO, LPS/IFNγ, or LPS/IFNγ/Compound 50. (LPS conc. 1 ug/ml f.c.; mouse IFNγ mouse 100 U/ml f.c, Compound 501 uM f.c). (LPS: Sigma Cat # L2654. Mouse IFNγ; Cat # R+D 485-MICF). […]
After measurement of protein concentration using BioRad assay, the nuclear extract was used in a Chemiluminescent NF-κB TransFactor Kit (BD) according to the user manual. […] Finally, amount of bound antibody to the plate was detected by incubation with chemiluminescent substrate and subsequent detection with a luminometer. […]

Data on one molecule can be found in patent US20120021434A1, “METHOD FOR TREATING B CELL REGULATED AUTOIMMUNE DISORDERS” (Synta Pharmaceuticals Corp., priority 2005, published 2012).

T2 sequence (P15307 whole entry): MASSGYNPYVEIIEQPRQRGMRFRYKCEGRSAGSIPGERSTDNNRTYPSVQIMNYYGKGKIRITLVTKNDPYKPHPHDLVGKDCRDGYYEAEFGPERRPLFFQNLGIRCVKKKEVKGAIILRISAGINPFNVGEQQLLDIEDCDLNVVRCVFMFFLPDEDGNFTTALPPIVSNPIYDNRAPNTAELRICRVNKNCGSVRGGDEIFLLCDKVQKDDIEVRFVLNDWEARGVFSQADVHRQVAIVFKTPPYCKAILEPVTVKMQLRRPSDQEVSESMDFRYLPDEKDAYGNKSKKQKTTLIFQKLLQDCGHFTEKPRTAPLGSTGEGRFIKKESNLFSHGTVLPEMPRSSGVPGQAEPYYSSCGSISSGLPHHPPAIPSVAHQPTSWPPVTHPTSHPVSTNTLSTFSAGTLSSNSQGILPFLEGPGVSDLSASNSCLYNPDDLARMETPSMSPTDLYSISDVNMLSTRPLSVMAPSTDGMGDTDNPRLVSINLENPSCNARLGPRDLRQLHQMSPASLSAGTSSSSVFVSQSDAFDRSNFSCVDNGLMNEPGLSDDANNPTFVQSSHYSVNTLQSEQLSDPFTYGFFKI

With `Cc1cccc(/C=N/Nc2cc(N3CCOCC3)nc(OCCc3ccccn3)n2)c1` [Compound 50, N-(3-Methyl-benzylidene)-N′-[6-morpholin-4-yl-2-(2-pyridin-2-yl-ethoxy)-pyrimidin-4-yl]-hydrazine], the “LPS-induced p65 nuclear accumulation” value in the test on NF-κB p65 is listed as “not blocked”. Moreover, in the test on IκBα, the “amount of IκBα in the cytoplasm, with vs without compound” value is on record as “no significant difference”. The “amount of IκBβ in the cytoplasm, with vs without compound” value in the test with IκBβ is on record as “no significant difference”. Also, on c-Rel [1], the “levels of nuclear c-Rel” value was “reduced”. In addition, in the test on p50, the “nuclear levels of p50” value is “slightly reduced”. Further, the “nuclear p65 levels” value in the test on p65 is given as “unchanged”. Further, at c-Rel [2], the “reduction in the level of c-Rel DNA-binding activity” value is 40%.
